From patent US7834148B2, “Protein phosphorylation imaging systems, methods of making phosphorylation imaging systems, and methods of use thereof” (Stanford University, priority 2006, dated 2010)

What was measured:
Akt kinase activity [1] = assay: Akt kinase sensor complemented FL activity, luminometer assay in transiently transfected 293T cells; assay type: cell-based, human
Protocol: Next the hypothesis that activation of Akt activity would lead to increased phosphorylation of AKM and interaction with FHA2 in AS1T was tested, and subsequent inhibition of split FL complementation. 293T cells transiently transfected with AS1T and AS1A were treated with platelet derived growth factor (PDGF) for 30 minutes prior to analysis of FL activity.
To increase the dynamic range of AS1T for indirect monitoring of Akt kinase activity, the original FL fragments (NFL: 1-416/CFL: 398-550) were replaced with the optimal split FL sites (1-398/394-550) as AS2T. The corresponding FL fragments in AS1A were also replaced to create AS2A. 293T cells transiently transfected with AS2T or AS2A were treated with different concentrations of LY or carrier control for 24 hours prior to analysis of FL activity. […] To determine if the specificity of AS2 can be restored by using more rigid linkers, the flexible (G4S)3 linkers were replaced with (EAAAR)3 used for intramolecular folding sensors previously used to studying FRB/FKBP12 interactions. However, there was a loss of specificity in response to LY.
(§1) Transfections were performed in 80% confluent 24 hr-old cultures of 293T and BT474 cells. For transient transfection, 250 ng/well of pcDNA molar equivalent of each AS1A and AS1T were used in 12-well tissue culture plates and 5 μl Lipofectamine 2000 was used per transfection following the manufacturer's instructions. 5 ng of pcDNA3.1(+) vector expressing full length RL was co-transfected per well to normalize for transfection efficiency. […]
(§2) In brief, transfected cells were lysed in 200 μl of ice-cold 1× passive lysis buffer supplied by Promega and were shaken for 15 mins on ice. […] RL activity was determined as described for FL activity, except 0.5 μg of coelenterazine dissolved in 100 μl of was used. Protein concentrations in cell lysates were determined by Bradford Assay (Bio-Rad). FL activities were normalized for protein content and for transfection efficiency using RL activity and expressed as relative light units per microgram protein per minute of counting (RLU/μg protein/min).

Akt kinase activity [2] = assay: Akt kinase sensor (AS1T/AS1A) complemented FL activity, luminometer assay in transiently transfected BT474 cells; assay type: cell-based, human; details: BT474 transiently transfected with AS1T, 24 hours, at 50 μM, relative to carrier control, p<0.05
Protocol: FL activity was determined by luminometer assays using cell lysates and normalized for protein content and transfection efficiency. LY treatment of BT474 cells transiently transfected with AS1T led to a dose dependent increase in FL activity in (1.3-fold maximum increase, p<0.05 at 50 μM, relative to carrier control treated cells).
as §1, §2

Akt kinase activity [3] = assay: Akt kinase sensor complemented FL activity, bioluminescence imaging of intact 293T/AS1T and 293T/AS1A stable cells; assay type: cell-based, human; details: AS1T sensor
Protocol: Complemented FL activity at each time point was determined by bioluminescence imaging of intact cells by addition of D-luciferin (FIG. 7a), prior to normalization for protein content (FIG. 7b).
FL activities in intact cells were determined by bioluminescence imaging of intact cells as described above. Cells were lysed in 1% NP40 buffer (Cell Signaling, Beverly, Mass.) for 15 mins on ice followed by centrifugation at 1×10^4 g to remove cell debris. Protein concentrations were determined by Biorad protein Dc assay (Biorad). FL activities were normalized to protein content and then to that of carrier control treated cells and expressed as normalized FL activity±standard error of means (S.E.M.)

[4] = tested on: insulin receptor substrate 1 (IRS-1) phosphorylation; assay: Renilla Luciferase based IRS-1 phosphorylation sensor, luminometer assay in transfected CHO-IR cells; assay type: cell-based; details: 24 h incubation, insulin 0, 25, 50 and 100 nM
Protocol: FIG. 3 is a graph of the activation of the Renilla Luciferase based IRS-1 phosphorylation sensor as a function of Insulin concentration. Luminometer assay result of CHO-IR cells transfected with a phosphorylation sensor vector and assayed after 24 h of incubation with the addition of different concentrations of insulin (0, 25, 50 and 100 nM).
The IRS-1 phosphorylation sensor was tested based on split renilla and split Firefly Luciferase in transient transfection assays in cell culture with and without insulin. The single fusion vector (FIG. 2) was utilized with split Renilla Luciferase (split site 229, non-self complementing), with a semi-rigid peptide ((EAAAR)2 (SEQ ID NO: 36)) through screening of different peptides. The phosphorylation domain was the PTB peptide and was chosen to be an 13 amino acid peptide (SEQ ID NO: 28) including Y941 (tyrosine at position 941 of IRS-1). The substrate recognition domain was chosen to be the SH2 domain of PI3 Kinase. The vector constructed was transiently transfected in CHO-IR (expressing the insulin receptor) and 293T cells (not expressing the insulin receptor).

[5] = tested on: insulin receptor substrate 1 (IRS-1) phosphorylation; assay: Firefly Luciferase based IRS-1 phosphorylation sensor in transfected CHO-IR cells; assay type: cell-based; details: presence of insulin compared to no insulin exposure
Description: FIG. 4 is a graph of the activation of the Firefly Luciferase based IRS-1 phosphorylation sensor as a function of Insulin exposure. Results of CHO-IR cells transfected and co-transfected with a self-complementing Firefly Luciferase based IRS-1 sensor used for studying insulin mediated IRS-1 phosphorylation. A two-vector system, single fusion vector with and without a semi-rigid linker were all compared. Greater absolute signal is seen with the fusion vector strategies.
Next, constructs were made using self-complementing split fragments of Firefly Luciferase with a semi-rigid linker or without any linker, and these were compared with two separate vectors (non-fusion approach) in CHO-IR cells in the presence and absence of insulin (FIG. 3). The results of these studies show signal from all three vectors in the presence of insulin, but the highest absolute signal is from the two fusion vectors. Furthermore, for the two fusion vectors the background signal is lowest (prior to insulin exposure) when using the fusion vector with a semi-rigid linker.
The fusion strategy increases absolute signal as compared to using two separate vectors. Furthermore, using a semi-rigid linker decreases background signal in the fusion vector strategy. […]

[6] = tested on: insulin receptor substrate 1 (IRS-1) phosphorylation; assay: Bioluminescence CCD imaging of split Firefly Luciferase IRS-1 phosphorylation sensor, CHO-IR cells implanted in living mice; assay type: in vivo, nude mice; details: mice with implanted sensor-transfected CHO-IR cells, 4 IU s.c. in twelve hour intervals, imaged 24 hours later
Protocol: FIG. 5 illustrates a bioluminescence CCD imaging of a split Firefly Luciferase based Insulin Receptor Substrate 1 (IRS-1) phosphorylation sensor in a living mouse.
Four nude mice were implanted with 5 million CHO-IR cells transiently transfected with the fusion split firefly IRS-1 phosphorylation sensor with linker (EAAAR)2 and also with 5 million CHO-IR mock-transfected cells at two separate sites. The mice were imaged using D-Luciferin (3 mg i.p.) with a CCD camera. Two mice were then given 4 IU human long-acting insulin (s.c.) in twelve hour intervals, and two were not given insulin and all four were imaged again 24 hours later. Consistent results were obtained in the 2 mice in each group with exposure to insulin leading to an increase in signal (˜5-fold induction) and lack of insulin exposure leading to minimal change (˜1.3 fold induction).

In the case of platelet derived growth factor [PDGF], the FL activity (Akt kinase activity [1]; 293T transiently transfected with AS1A, 30 minutes treatment, p>0.05) is reported as “did not significantly decrease” and the “decrease in FL activity” value (Akt kinase activity [1]; 293T transiently transfected with AS1T, 30 minutes treatment, vs carrier control, p<0.05) is reported as 60%.
With `O=c1cc(N2CCOCC2)oc2c(-c3ccccc3)cccc12` [LY, LY294002] the “maximum increase in FL activity” value (Akt kinase activity [2]) was 1.3 fold, the “increase in FL activity with AS2T or AS2A compared to AS1T or AS1A” value (Akt kinase activity [1]; 293T transiently transfected, LY for 24 hours, unpublished data) was 2 fold and the “maximum induction (dynamic range of AS1T)” value (Akt kinase activity [3]) was 4 fold.
In the case of insulin, the “complemented Renilla Luciferase activity” value [4] is reported as “concentration dependent increase”, the “signal of split bioluminescence reporter IRS-1 sensor” value [5] is reported as “increased signal” and the “increase in signal (induction)” value [6] is reported as ~5 fold induction.
